The target in assay [1] is T1, Rat brain SERT (Rattus norvegicus, UniProt P31652).
T1 construct: A rat brain without cerebellum (Zivic Laboratories, Inc.-Pittsburgh, Pa.) was homogenized; tissue Zivic Laboratories, Inc; host or cells: rat brain without cerebellum, membrane preparation
The experiment in a line: Rat brain SERT [3H]-citalopram binding. The settings on record: rat brain membranes, 0.6 nM [3H]-Citalopram, 60 min at 25° C. The procedure:
A rat brain without cerebellum (Zivic Laboratories, Inc.-Pittsburgh, Pa.) was homogenized in a 52.6 mM Tris pH 8/126.4 mM NaCl/5.26 mM KCl mixture and centrifuged at 1,000 rpm for 5 min. The supernatant was removed and re-centrifuged at 15,000 rpm for 30 min. Pellets were re-homogenized in a 52.6 mM Tris pH8/126.4 mM NaCl/5.26 mM KCl mixture. Membranes were incubated with 0.6 nM [^3H]-Citalopram plus/minus test compounds for 60 min at 25° C. and harvested by rapid filtration over GF/C glass fiber filters (pretreated with 0.3% polyethylenimine) followed by four washes with ice-cold buffer. Nonspecific binding was defined in the presence of 100 μM fluoxetine. IC50 values were determined by a single site curve-fitting program (GraphPad, San Diego, Calif.) and converted to Ki values based on a [^3H]-Citalopram Kd of 0.6 nM and a ligand concentration of 0.6 nM.

Assay [2] has as its target T2, cloned human H3 receptors, stably expressed in SK-N-MC cells (Homo sapiens, UniProt Q9Y5N1).
T2 construct: expressed in transfected cells
The experiment in a line: H3 receptor binding. The method, then:
Binding of compounds to the cloned human H3 receptors, stably expressed in SK-N-MC cells, was performed as described by Barbier, A. J. et al. (Br. J. Pharmacol. 2004, 143(5), 649-661).

Assay [3] deals with T3, human SERT (HEK293 membranes) (Homo sapiens, UniProt P31645).
T3 construct: expressed in transfected cells; host or cells: HEK293
T3 sequence (P31645 whole entry): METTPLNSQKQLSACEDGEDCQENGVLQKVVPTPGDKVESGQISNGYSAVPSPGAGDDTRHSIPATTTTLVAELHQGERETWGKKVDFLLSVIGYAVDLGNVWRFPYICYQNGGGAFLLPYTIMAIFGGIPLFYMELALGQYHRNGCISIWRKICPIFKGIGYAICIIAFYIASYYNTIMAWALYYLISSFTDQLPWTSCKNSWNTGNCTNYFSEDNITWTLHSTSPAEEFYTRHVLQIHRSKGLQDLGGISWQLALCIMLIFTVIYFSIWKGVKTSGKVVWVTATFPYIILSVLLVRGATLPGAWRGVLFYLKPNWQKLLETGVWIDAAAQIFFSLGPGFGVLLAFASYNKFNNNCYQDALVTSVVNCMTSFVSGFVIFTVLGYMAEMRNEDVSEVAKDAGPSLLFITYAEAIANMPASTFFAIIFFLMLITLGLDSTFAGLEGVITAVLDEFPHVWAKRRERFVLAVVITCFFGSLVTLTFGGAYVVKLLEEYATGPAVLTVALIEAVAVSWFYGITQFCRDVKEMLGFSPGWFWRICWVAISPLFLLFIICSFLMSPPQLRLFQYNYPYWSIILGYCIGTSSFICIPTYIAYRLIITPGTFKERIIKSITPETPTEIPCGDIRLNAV
The experiment in a line: Human SERT 3H-citalopram binding. As to conditions: HEK293 membranes expressing human SERT, rt 1 h. The procedure: Homogenized HEK293 (Human Embryonic Kidney) membranes expressing the human SERT were incubated with ^3H-citalopram (SERT) at rt for 1 h in 50 mM Tris, 120 mM NaCl, 5 mM KCl (pH 7.4). Nonspecific binding was determined in the presence of 10 μM fluoxetine for the SERT. The membranes were washed and the radioactivity was counted as above. Calculations for Ki at the SERT were based on a Kd value for ^3H-citalopram and a ligand concentration of 3.1 nM.

By Ki is commonly meant the dissociation constant of the complex between target and ligand, obtained from inhibition or displacement. Low values mean tighter binding, high ones weaker binding.

Where a name gives a salt, the structure may show the parent alone.

T1 sequence (P31652 whole entry): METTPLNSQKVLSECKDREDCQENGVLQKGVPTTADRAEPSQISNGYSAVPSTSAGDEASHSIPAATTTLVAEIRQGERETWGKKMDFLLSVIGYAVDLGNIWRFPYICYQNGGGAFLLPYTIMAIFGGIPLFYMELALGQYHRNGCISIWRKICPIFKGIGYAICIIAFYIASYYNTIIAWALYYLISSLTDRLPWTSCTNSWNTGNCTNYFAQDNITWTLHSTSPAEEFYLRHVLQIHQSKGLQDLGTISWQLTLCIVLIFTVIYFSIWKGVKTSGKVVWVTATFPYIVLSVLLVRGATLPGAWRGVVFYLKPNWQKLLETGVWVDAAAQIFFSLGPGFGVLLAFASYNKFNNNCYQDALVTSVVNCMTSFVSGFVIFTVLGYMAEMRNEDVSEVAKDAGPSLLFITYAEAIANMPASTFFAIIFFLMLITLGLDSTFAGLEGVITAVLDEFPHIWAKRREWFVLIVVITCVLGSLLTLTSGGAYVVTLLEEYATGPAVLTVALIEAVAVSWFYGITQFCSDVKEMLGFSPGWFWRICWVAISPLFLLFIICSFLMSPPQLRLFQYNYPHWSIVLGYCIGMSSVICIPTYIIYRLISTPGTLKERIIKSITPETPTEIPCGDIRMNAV
T2 sequence (Q9Y5N1 whole entry): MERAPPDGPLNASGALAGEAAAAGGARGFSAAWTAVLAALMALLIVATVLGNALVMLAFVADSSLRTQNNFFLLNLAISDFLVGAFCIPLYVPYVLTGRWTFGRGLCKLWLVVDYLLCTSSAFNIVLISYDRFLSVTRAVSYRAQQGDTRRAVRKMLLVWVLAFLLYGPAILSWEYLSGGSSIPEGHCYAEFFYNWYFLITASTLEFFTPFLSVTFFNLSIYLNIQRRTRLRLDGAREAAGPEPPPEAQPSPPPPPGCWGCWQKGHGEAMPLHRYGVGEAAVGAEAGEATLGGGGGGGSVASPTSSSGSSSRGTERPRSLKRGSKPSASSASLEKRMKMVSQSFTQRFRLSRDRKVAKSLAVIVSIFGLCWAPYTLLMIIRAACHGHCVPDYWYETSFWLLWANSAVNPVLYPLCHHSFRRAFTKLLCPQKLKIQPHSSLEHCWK

In the case of `CSc1ccc(C2CN(C)Cc3cccc(Oc4cncc(CN5CCCCC5)c4)c32)cc1` (stereo not shown) [Example 4B, 2-Methyl-4-(4-methylsulfanyl-phenyl)-5-(5-piperidin-1-ylmethyl-pyridin-3-yloxy)-1,2,3,4-tetrahydro-isoquinoline Trifluoroacetic Acid Salt], the inhibition constant (Ki) in assay [1] is 174 nM; in assay [2], 511 nM; in assay [3], 262 nM.

Take `CSc1ccc(C2CN(C)Cc3cc(Oc4ccnc(CN5CCCCC5)c4)ccc32)cc1` (stereo not shown) [Example 3A, 2-2-Methyl-4-(4-methylsulfanyl-phenyl)-7-(2-piperidin-1-ylmethyl-pyridin-4-yloxy)-1,2,3,4-tetrahydro-isoquinoline Trifluoroacetic Acid Salt]: the Ki in assay [1] came to 25.7 nM; in assay [2], 323 nM; in assay [3], 10.4 nM.

As to `CSc1ccc(C2CN(C)Cc3cc(Oc4ccc(CN5CCCCC5)cn4)ccc32)cc1` (stereo not shown) [Example 7, 2-Methyl-4-(4-methylsulfanyl-phenyl)-7-(5-piperidin-1-ylmethyl-pyridin-2-yloxy)-1,2,3,4-tetrahydro-isoquinoline], the Ki in assay [1] was 4.5 nM; in assay [2] it was 8.2 nM; in assay [3], 2.3 nM.

Regarding `CSc1ccc(C2CN(C)Cc3cc(Oc4ccc(CN5CCOCC5)cn4)ccc32)cc1` (stereo not shown) [Example 10, 2-Methyl-4-(4-methylsulfanyl-phenyl)-7-(5-morpholin-4-ylmethyl-pyridin-2-yloxy)-1,2,3,4-tetrahydro-isoquinoline], the Ki in assay [1] came out at 11 nM; in assay [2] it was 260 nM; in assay [3], 7.9 nM.

In the case of `CSc1ccc(C2CN(C)Cc3cc(Oc4cc(CN5CCCCC5)ccn4)ccc32)cc1` (stereo not shown) [Example 5, 2-Methyl-4-(4-methylsulfanyl-phenyl)-7-(4-piperidin-1-ylmethyl-pyridin-2-yloxy)-1,2,3,4-tetrahydro-isoquinoline], the Ki came out at 8.7 nM in assay [1], 34.3 nM in assay [2] and 2.4 nM in assay [3].

Take `CSc1ccc(C2CN(C)Cc3cc(Oc4nc(CN5CCCCC5)cs4)ccc32)cc1` (stereo not shown) [Example 6, 2-Methyl-4-(4-methylsulfanyl-phenyl)-7-(4-piperidin-1-ylmethyl-thiazol-2-yloxy)-1,2,3,4-tetrahydro-isoquinoline]: the figures for the Ki in assay [1], in assay [2] and in assay [3] were 5.2 nM, 20.7 nM and 4.3 nM, respectively.

For `CSc1ccc(C2CN(C)Cc3cccc(Oc4cccc(CN5CCCCC5)c4)c32)cc1` (stereo not shown) [Example 1B, 2-Methyl-4-(4-methylsulfanyl-phenyl)-5-(3-piperidin-1-ylmethyl-phenoxy)-1,2,3,4-tetrahydro-isoquinoline Trifluoroacetic Acid Salt], the Ki in assay [1] is 403 nM; in assay [2], 253 nM; in assay [3], 616 nM.

Take `CSc1ccc(C2CN(C)Cc3cc(Oc4ccc(CN5CCCCC5)cc4)ccc32)cc1` (stereo not shown) [Example 9, 2-Methyl-4-(4-methylsulfanyl-phenyl)-7-(4-piperidin-1-ylmethyl-phenoxy)-1,2,3,4-tetrahydro-isoquinoline]: the Ki in assay [1] was found to be 4.3 nM; in assay [2], 22.7 nM; in assay [3], 3.8 nM.

As to `CSc1ccc(C2CN(C)Cc3cc(Oc4ccc(CN5CCC(F)CC5)cn4)ccc32)cc1` (stereo not shown) [Example 12, 7-[5-(4-Fluoro-piperidin-1-ylmethyl)-pyridin-2-yloxy]-2-methyl-4-(4-methylsulfanyl-phenyl)-1,2,3,4-tetrahydro-isoquinoline], the Ki in assay [1] was 14.3 nM; in assay [2], 110 nM; in assay [3] it was 6.5 nM.

In the case of `CSc1ccc(C2CN(C)Cc3cc(Oc4cccc(CN5CCCCC5)c4)ccc32)cc1` (stereo not shown) [Example 1A, 2-Methyl-4-(4-methylsulfanyl-phenyl)-7-(3-piperidin-1-ylmethyl-phenoxy)-1,2,3,4-tetrahydro-isoquinoline trifluoroacetic acid salt], the Ki in assay [1] turned out to be 11.7 nM; in assay [2], 18 nM; in assay [3], 17.7 nM.

Turning to `CSc1ccc(C2CN(C)Cc3cc(Oc4nc(CN5CCOCC5)cs4)ccc32)cc1` (stereo not shown) [Example 11, 2-Methyl-4-(4-methylsulfanyl-phenyl)-7-(4-morpholin-4-ylmethyl-thiazol-2-yloxy)-1,2,3,4-tetrahydro-isoquinoline], in assay [2], affinity was put at a Ki of 201 nM.

`CSc1ccc(C2CN(C)Cc3cc(Oc4ccc(CN5CCCCC5)nc4)ccc32)cc1` (stereo not shown) [Example 8, 2-Methyl-4-(4-methylsulfanyl-phenyl)-7-(6-piperidin-1-ylmethyl-pyridin-3-yloxy)-1,2,3,4-tetrahydro-isoquinoline]: the Ki in assay [1] amounted to 7.5 nM; in assay [2] it was 24.3 nM; in assay [3], 8 nM.

As to `CSc1ccc(C2CN(C)Cc3cc(Oc4cccc(CN5CCCCC5)n4)ccc32)cc1` (stereo not shown) [Example 2, 2-Methyl-4-(4-methylsulfanyl-phenyl)-7-(6-piperidin-1-ylmethyl-pyridin-2-yloxy)-1,2,3,4-tetrahydro-isoquinoline Trifluoroacetic Acid Salt], the Ki was found to be 11.7 nM in assay [1], 51 nM in assay [2] and 22 nM in assay [3].

For the compound `CSc1ccc(C2CN(C)Cc3cccc(Oc4ccnc(CN5CCCCC5)c4)c32)cc1` (stereo not shown) [Example 3B, 2-Methyl-4-(4-methylsulfanyl-phenyl)-5-(2-piperidin-1-ylmethyl-pyridin-4-yloxy)-1,2,3,4-tetrahydro-isoquinoline Trifluoroacetic Acid Salt], the Ki turned out to be 182 nM in assay [1], 265 nM in assay [2] and 157 nM in assay [3].

For `CSc1ccc(C2CN(C)Cc3cc(Oc4ncc(CN5CCCCC5)s4)ccc32)cc1` (stereo not shown) [Example 13, 2-Methyl-4-(4-methylsulfanyl-phenyl)-7-(5-piperidin-1-ylmethyl-thiazol-2-yloxy)-1,2,3,4-tetrahydro-isoquinoline], the results for the Ki in assay [1], in assay [2] and in assay [3] were 4 nM, 20.7 nM and 3.2 nM, respectively.

(Values after US7846930B2, “Diaryl-substituted tetrahydroisoquinolines as histamine H3 receptor and serotonin transporter modulators” (Janssen Pharmaceutica NV, priority 2007, dated 2010).)
